Data published in patent publication US12070472B2, “Treatment of drug resistant proliferative diseases with telomerase mediated telomere altering compounds” (The Board of Regents of the University of Texas System, priority 2016, dated 2024).

Tests used:
H1693 [1] = assay: 6-thio-dG on H1693 parental and paclitaxel/carboplatin resistant lines; assay type: cell-based, human; conditions: 1, 3, 10 μM
Method: The resulting resistant lines and their parents were tested for the effect of 6-thio-dG at 1, 3, and 10 μM concentrations.

H1993 = assay: NSCLC panel sensitivity to 6-thio-dG, H1993; assay type: cell-based, human
Method: (§1) A panel of NSCLC cell lines was tested for sensitivity to 6-thio-dG by performing a cell count after 1 week treatment. Briefly, cells were treated with 3 μM 6-thio-dG every three days for 1 week. Viable cells were counted at the end of treatment. Each 6-thiodG treated cell line was normalized to its DMSO treated control.
(§2) Two isogenic pairs of NSCLC cell lines were studied for sensitization to 6-thio-dG treatment.

H324 = assay: NSCLC panel sensitivity to 6-thio-dG, H324; assay type: cell-based; conditions: Homo sapiens
Method: as §1, with “control. The results of the cell count are depicted in FIG. 12, with the various cell lines arranged in descending resistance to 6-thio-dG from left to right. […] The IC50 values for the whole panel of tested cells are depicted in FIG. 13. The IC50 values for tested cells are depicted as a column scatter graph in FIG. 14.” for “control.”

Toxicity testing in rats = conditions: for mortality: rats
Method: Six rats were treated with 15 mg of 6-thio-dG/kg of body weight every two days. […] Another 5 rats were treated with 50 mg of 6-thio-dG/kg of body weight every other day.

HCC15 = assay: GI 50 determination, HCC15; assay type: cell-based; conditions: Homo sapiens
Method: (§3) Cells of each type listed in Table 2 were seeded in chamber slides.

HCC827 = assay: GI 50 determination, HCC827; assay type: cell-based; conditions: Homo sapiens
Method: as §3

H1993 cells = assay: Sensitization by 5-azacytidine pretreatment, H1993; assay type: cell-based, human; conditions: Homo sapiens, NCI-H1993, 500 nM 5-azacytidine one week, then 6-thio-dG one week, read-out: IC50 of 6-thio-dG after 5-azacytidine pretreatment
Method: All three resistant cell lines were pre-treated with 500 nM of the demethylating agent 5-azacytidine for one week. Following the 5-azacytidine pretreatment, each resistant cell line was treated with 9 different concentrations (0.01 to 1000 micromolar) of 6-thio-dG for one week. Cells were then evaluation for growth/death.

BJ fibroblast cells [2] = assay: Cell morphology and cell count after one week, BJ fibroblasts; assay type: cell-based, human; conditions: normal BJ fibroblasts; 3 μM twice during one week
Method: Cancer HCT116 and normal BJ fibroblast cells were treated with 6-thio-dG (3 μM) and 6-thio-G (3 μM) twice during one week. Following one week of the treatment, cell morphology was monitored, and then the cells were collected and counted.

H2086 = assay: NSCLC panel sensitivity to 6-thio-dG, H2086; assay type: cell-based, human; conditions: 3 μM every three days for 1 week, normalized to DMSO control
Method: as §1, with “control. The results of the cell count are depicted in FIG. 12, with the various cell lines arranged in descending resistance to 6-thio-dG from left to right. […] The IC50 values for the whole panel of tested cells are depicted in FIG. 13. The IC50 values for tested cells are depicted as a column scatter graph in FIG. 14.” for “control.”

BJ fibroblast cells [3] = assay: Telomere length assay (TRF), BJ fibroblasts long-term culture; assay type: cell-based, human; conditions: 10 weeks, compared to untreated control
Method: For long-term cellular experiments, HCT116 (1,000 cells/cm^2) and BJ (10,000 cells/cm^2) cells were fed with 6-thio-dG (1, 3, 10 μM) containing medium every three days. The cells were counted and replated every week for 10-16 weeks. Additionally, HCT116 cells (1,000 cells/cm^2) were fed with 6-thio-G (1, 3, 10 μM) every three days and each week cells were counted, collected for TRF (Telomere Restriction Fragment) analysis and replated. HCT116 cells, following treatment with 10 μM 6-thio-dG for 12 weeks, were then treated with a combination of 10 μM 6-thio-dG and 3 μM GRN163L for 2-4 weeks.

[4] = system: paclitaxel/carboplatin resistant H1355; assay: 6-thio-dG on paclitaxel/carboplatin resistant H1355, cell count; assay type: cell-based, human; conditions: 1, 3, 10 μM every three days for one week
Method: A cell count was performed to measure cell growth/death.

H2009 = assay: GI 50 determination, H2009; assay type: cell-based; conditions: Homo sapiens, NCI-H2009
Method: as §3

H1693 [5] = assay: NSCLC panel sensitivity to 6-thio-dG, H1693; assay type: cell-based, human
Method: as §1, §2

[6] = mouse, in vivo, 5 mg/kg
Method: Six WT mice were treated with 1.67 mg of 6-thio-dG/kg of body weight daily. Six WT mice were treated with 1.67 mg of 6-thio-G/kg of body weight daily. Six WT mice were treated with 5 mg of 6-thio-dG/kg of body weight daily. Six WT mice were treated with 5 mg of 6-thio-G/kg of body weight daily. The mice were given the appropriate dosage and weighed daily for 25 days.

BJ = assay: GI 50 determination, BJ; assay type: cell-based; conditions: Homo sapiens; BJ normal cell line
Method: as §3

H1819 = assay: NSCLC panel sensitivity to 6-thio-dG, H1819; assay type: cell-based, human
Method: as §1, §2

[7] = system: HCT116 colon cancer cell line; assay: CellTitreGlo survival, 7 days, HCT116; assay type: cell-based; conditions: Homo sapiens, HCT-116, 168 h
Method: (§4) Four different cell lines were treated with nine different doses of 6-thio-dG for 7 days. HCT116 colon cancer cell line (FIG. 9A), HCEC1 normal colonic cell line (FIG. 9C), A549 non-small cell lung cancer cell line (FIG. 9B), and BJ normal fibroblast cell line (FIG. 9D) were each treated. Survival fraction was measured by CellTitreGlo luminescent cell viability assay (Promega).

BJ cells = assay: Telomere dysfunction induced foci (TIF) assay in normal BJ cells; assay type: cell-based, human; conditions: 10 μM, after 48 hours
Method: TIFs were quantified using Imaris software.
Normal BJ cells and […] BJ-hTERT cells were seeded in chamber slides. Following cell attachment, 6-thio-dG (10 μM) and 6-thio-G (10 μM) were added to fresh medium of each cell type. […] A control was used for each cell type as well, where DMSO was added to fresh medium of each cell type. […] These include almost all human cancer cells and certain human diseases involving acute and chronic inflammation.

[8] = system: A549 non-small cell lung cancer cell line; assay: CellTitreGlo survival, 7 days, A549; assay type: cell-based; conditions: Homo sapiens, 168 h
Method: as §4

HCC515 = assay: GI 50 determination, HCC515; assay type: cell-based; conditions: Homo sapiens
Method: as §3

H2126 = assay: NSCLC panel sensitivity to 6-thio-dG, H2126; assay type: cell-based; conditions: Homo sapiens, NCI-H2126
Method: as §1, with “control. The results of the cell count are depicted in FIG. 12, with the various cell lines arranged in descending resistance to 6-thio-dG from left to right. […] The IC50 values for the whole panel of tested cells are depicted in FIG. 13. The IC50 values for tested cells are depicted as a column scatter graph in FIG. 14.” for “control.”

[9] = system: BJ normal fibroblast cell line; assay: CellTitreGlo survival, 7 days, BJ; assay type: cell-based; conditions: Homo sapiens, 168 h
Method: as §4

## Nc1nc2c(ncn2[C@H]2C[C@H](O)[C@@H](CO)O2)c(=S)[nH]1 [6-thio-dG, 6-thio-2′-deoxyguanosine]
H1693 [1]
  sensitivity: resistant to 6-thio-dG
H1993; H1993, 3 μM every three days for 1 week, normalized to DMSO control
  survival rate: greater than 50%
H1993; Homo sapiens, NCI-H1993
  IC50: > 100 µM
H324
  IC50: 2200 nM
Toxicity testing in rats; rat, in vivo, 15 mg/kg
  signs of impaired function in surviving animals: no signs of impaired function
Toxicity testing in rats; 15 mg/kg every two days, six rats
  mortality: One rat died after 6 injections
Toxicity testing in rats; 50 mg/kg every other day, 5 rats
  mortality: All rats died after 12 days
HCC15
  GI50: 800 nM
HCC827
  GI50: 800 nM
H1993 cells
  IC50: ~4.1 µM
BJ fibroblast cells [2]
  morphology and cell counts: only slightly affected
H2086
  survival rate: greater than 50%
BJ fibroblast cells [3]
  telomere shortening (TRF): did not show enhanced telomere shortening
[4]
  sensitivity (cell count): sensitive to all three concentrations
H2009
  GI50: 2600 nM
H1693 [5]; H1693, 3 μM every three days for 1 week, normalized to DMSO control
  survival rate: greater than 50%
H1693 [5]; Homo sapiens, NCI-H1693
  IC50: > 100 µM
[6]
  weight loss: only modest weight loss
BJ
  GI50: > 100 µM
H1819; H1819, 3 μM every three days for 1 week, normalized to DMSO control
  survival rate: greater than 50%
H1819; Homo sapiens, NCI-H1819
  IC50: > 100 µM
[7]
  IC50: 1100 nM
BJ cells
  >4 TIFs per nucleus background subtracted: 2
[8]
  IC50: 2400 nM
HCC515
  GI50: 2400 nM
H2126
  IC50: 3 to 7 µM
[9]
  IC50: > 100 µM
